Four compounds from PubChem BioAssay (NCI) can be followed below.

Molecules are shown by their SMILES. Values joined by “and” are separate entries in the source; they are usually repeats but may differ in a detail not shown here. Equal values may be shown once.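 The compound was tested at five concentrations on cells cultured in 96-well plates, with a 48-hour exposure period. GI50 is the concentration that inhibits growth by half. TGI is the concentration that stops growth completely.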

Some test systems named below: LOX IMVI melanoma; COLO 205 colon; OVCAR-4 ovarian; SK-OV-3 ovarian; SW-620 colon; 786-0 renal; MALME-3M melanoma; RPMI-8226 leukemia; PC-3 prostate; MCF7 breast.
Experiment in all cases: growth of human tumour cells (NCI), 48 h

Consider `Cc1cc(-c2c(F)cc3c4nn([C@H]5CC[C@@H](N(C)C)CC5)c(=O)c-4cn(C4CC4)c3c2F)cc(C)n1`, for which the TGI is 571 nM with LOX IMVI melanoma; 93.6 nM and 889 nM with COLO 205 colon; 141 nM and 708 nM with SK-OV-3 ovarian; 1360 nM with SW-620 colon; 52.6 nM and 363 nM in the test on 786-0 renal; 208 nM and 1670 nM in the test on MALME-3M melanoma. Besides, the TGI in the test on PC-3 prostate and in the test with MCF7 breast was > 100000 nM in each case. Besides, the GI50 was 36.6 nM in the test with COLO 205 colon; 316 nM in the test with OVCAR-4 ovarian; 54.6 nM in the test on SK-OV-3 ovarian; 20.2 nM in the test with 786-0 renal; 31.8 nM with MALME-3M melanoma; 29.4 nM in the test with RPMI-8226 leukemia.

Take `Cc1c(C#N)cccc1[C@@H](C)Nc1nnc(C)c2cnc(N3CCOCC3)cc12`: the GI50 was 27500 nM in the test with LOX IMVI melanoma; 22400 nM in the test with COLO 205 colon; 13900 nM with OVCAR-4 ovarian; 31300 nM in the test on SK-OV-3 ovarian; 18900 nM in the test on SW-620 colon; 13700 nM with 786-0 renal. In addition, the GI50 is 21400 nM with MALME-3M melanoma, 25800 nM in the test on RPMI-8226 leukemia, 27800 nM with PC-3 prostate and 21400 nM in the test with MCF7 breast. Further, the TGI in the test with LOX IMVI melanoma was > 100000 nM; in the test with COLO 205 colon, 60800 nM; with OVCAR-4 ovarian, 61800 nM; with SK-OV-3 ovarian, > 100000 nM; with SW-620 colon, > 100000 nM; in the test on 786-0 renal, > 100000 nM. For the same compound, the TGI is 58500 nM in the test on MALME-3M melanoma, > 100000 nM with RPMI-8226 leukemia, > 100000 nM in the test on PC-3 prostate and 72400 nM with MCF7 breast.

Regarding `COc1ccc(-c2cncn2-c2cc(OC)c(OC)c(OC)c2)cc1`, the GI50 with LOX IMVI melanoma is 857 nM; in the test with COLO 205 colon it was 103 nM; with OVCAR-4 ovarian, > 36300 nM; with SK-OV-3 ovarian, 256 nM; in the test with SW-620 colon, 58.5 nM; in the test with 786-0 renal it was 115 nM. The GI50 in the test on MALME-3M melanoma is < 16.3 nM; in the test on RPMI-8226 leukemia, 451 nM; in the test on PC-3 prostate, 552 nM. Moreover, the TGI is > 80900 nM in the test on LOX IMVI melanoma; 9700 nM in the test with COLO 205 colon; > 100000 nM in the test on OVCAR-4 ovarian; > 86500 nM in the test on SK-OV-3 ovarian; > 100000 nM in the test with SW-620 colon; 43700 nM in the test on 786-0 renal. The TGI is 3290 nM with RPMI-8226 leukemia, > 40000 nM with PC-3 prostate and > 34800 nM with MCF7 breast.

For the compound `COc1ccc(-c2cc3c(C)nc(N)nc3n(C3CCC(OCCO)CC3)c2=O)cn1` (configuration not stated), the GI50 is 111 nM and 88.2 nM with LOX IMVI melanoma; 88.2 nM and 137 nM in the test with COLO 205 colon; 140 nM and 114 nM with OVCAR-4 ovarian; 44 nM and 81.4 nM in the test on SK-OV-3 ovarian; 181 nM and 162 nM with SW-620 colon; 69.4 nM and 60.5 nM with 786-0 renal. Moreover, the GI50 was 35 nM and 19.5 nM in the test with MALME-3M melanoma; 157 nM and 61.2 nM in the test with RPMI-8226 leukemia; 68.7 nM and 22.2 nM in the test with PC-3 prostate; 26.6 nM and 22.8 nM with MCF7 breast. Also, the TGI in the test on LOX IMVI melanoma was 1120 nM and 943 nM; in the test with COLO 205 colon it was 874 nM and 1140 nM; with OVCAR-4 ovarian, 2060 nM and 841 nM; in the test on SK-OV-3 ovarian, 291 nM and 527 nM; in the test with SW-620 colon, > 10000 nM; with 786-0 renal it was 614 nM and 442 nM. The TGI with MALME-3M melanoma was 263 nM and 134 nM; with RPMI-8226 leukemia it was > 3740 nM and 3270 nM; in the test with PC-3 prostate it was > 2730 nM and 299 nM; with MCF7 breast it was > 10000 nM and 1030 nM.
